System: HEK293T cells
Assay: Polysome profile by sucrose gradient sedimentation
Type: cell-based, human
Settings: i14G1-12 10 μM, 3 h; for 80S monoribosomes in polysome profile: i14G1-10 20 μM
Procedure: FIGS. 3A-F: i14G1-10 and i14G1-12 inhibit mRNA translation and sensitize cell survival of eIF4G1 and eIF1 depleted cells. (3A) In-vitro translation using rabbit reticulocyte lysate which was pre-incubated with different concentrations of i14G1-10 or i14G1-12 for 10 minutes followed by the addition of capped firefly luciferase mRNA. After 90 minutes at 30° C., the luminescence signal was measured and the IC50 was calculated. The data represents mean±SEM of 6 independent repeats. (3B) HEK293T cells were treated with DMSO (vehicle control), and sub-cytotoxic concentrations of i14G1-10 (20 μM) and i14G1-12 (10 μM) for 3h. Cell lysates were then subjected to sucrose gradient sedimentation to obtain polysome profiles. (3C) HEK293T cells were treated with the indicated concentrations of i14G1-10 and i14G-12 for 3 h, followed by the addition of puromycin (10 μg/ml) for 5 minutes, after which cells were lysed and analyzed by western blot using an anti-puromycin antibody and anti-GAPDH antibody that serves as a loading control. The graph represents the mean±SEM chemiluminescence signal intensity of puromycin labeling normalized to GAPDH of 3 independent experiments. The calculated IC-50 is shown. (3D) HEK293T cells were transfected with either control or eIF4G1 siRNA in the absence or presence of eIF4G1 expression plasmid. As the eIF4G1 siRNA pool is directed against the 3′UTR, which is absent from the eIF4G1 expression plasmid, the exogenous eIF4G1 is resistant to the siRNA. […] The calculated IC-50 is shown. (3E) The graphs represent cell viability of the indicated cell lines in the presence of increasing concentrations of i14G1-10 and i14G1, analyzed by Luminescent Cell Viability Assay. […]
Polysome profile and real-time PCR. […] Gradients were fractionated with continuous absorbance measurement at 254 nm using ISCO absorbance detector UA-6. Fractions were pooled according to their absorbance into Free, Light, and Heavy ribosomal fractions. […]

Structure (SMILES) | 80S monoribosomes in polysome profile | heavy polysomal fractions in polysome profile
Cn1ccnc1S/C(=C/C=C(C#N)C#N)c1ccc(Cl)cc1 [i14G1-12] | increase in 80S monoribosomes | substantial decrease in the heavy polysomal fractions
O=C(/C=C/Sc1ccc(C(F)(F)F)cn1)c1ccccc1 [i14G1-10] | increase in 80S monoribosomes | –

Source: patent publication US20250090510A1, “eIF4G1-eIF1 INHIBITORS AND USE THEREOF” (YEDA RESEARCH AND DEVELOPMENT CO. LTD., priority 2022, published 2025)
